Laboratory results published in ChEMBL document CHEMBL1201861, “Genomics of Drug Sensitity in Cancer screening data, Wellcome Trust Sanger Institute”.
Where a name gives a salt, the structure may show the parent alone.

Experiments:
Assay in all cases: cells
[1] = tested on: MZ2-MEL; assay type: functional, cell-based, Homo sapiens;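 also: growth inhibition of MZ2-MEL cells read out with a cell viability assay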
Description: SANGER: Inhibition of human MZ2-MEL cell growth in a cell viability assay.

[2] = tested on: NB12; assay type: functional, cell-based, Homo sapiens;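 also: growth inhibition of human NB12 cells, read out by a cell viability assay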
Description: SANGER: Inhibition of human NB12 cell growth in a cell viability assay.

[3] = tested on: LB831-BLC; assay type: functional, cell-based, Homo sapiens;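 also: growth inhibition of LB831-BLC cells, read out with a cell viability assay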
Description: SANGER: Inhibition of human LB831-BLC cell growth in a cell viability assay.

[4] = tested on: SCH; assay type: functional, cell-based, Homo sapiens;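 also: growth inhibition of human SCH cells, read out in a cell viability assay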
Description: SANGER: Inhibition of human SCH cell growth in a cell viability assay.

[5] = tested on: MFM-223; assay type: functional, cell-based, Homo sapiens
Description: SANGER: Inhibition of human MFM-223 cell growth in a cell viability assay.

[6] = tested on: RPMI-8226; assay type: functional, cell-based, Homo sapiens
Description: SANGER: Inhibition of human RPMI-8226 cell growth in a cell viability assay.

[7] = tested on: HCC2218; assay type: functional, cell-based, Homo sapiens;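 also: cell viability assay read-out, with IC50 given as the concentration that inhibits growth of the cell line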
Description: SANGER: Inhibition of human HCC2218 cell growth in a cell viability assay.

[8] = tested on: J-RT3-T3-5; assay type: functional, cell-based, Homo sapiens;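 also: cell viability assay measuring growth inhibition of human J-RT3-T3-5 cells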
Description: SANGER: Inhibition of human J-RT3-T3-5 cell growth in a cell viability assay.

[9] = tested on: SK-MEL-2; assay type: functional, cell-based, Homo sapiens;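 also: growth inhibition of human SK-MEL-2 cells measured with a cell viability assay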
Description: SANGER: Inhibition of human SK-MEL-2 cell growth in a cell viability assay.

[10] = tested on: HAL-01; assay type: functional, cell-based, Homo sapiens;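 also: growth inhibition of human HAL-01 cells, read out with a cell viability assay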
Description: SANGER: Inhibition of human HAL-01 cell growth in a cell viability assay.

[11] = tested on: MFH-ino; assay type: functional, cell-based, Homo sapiens;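 also: growth inhibition of human MFH-ino cells, read out by a cell viability assay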
Description: SANGER: Inhibition of human MFH-ino cell growth in a cell viability assay.

[12] = tested on: SHP77; assay type: functional, cell-based, Homo sapiens, SHP-77;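 also: growth inhibition of human SHP-77 cells measured by a cell viability assay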
Description: SANGER: Inhibition of human SHP-77 cell growth in a cell viability assay.

[13] = tested on: L-428; assay type: functional, cell-based, Homo sapiens
Description: SANGER: Inhibition of human L-428 cell growth in a cell viability assay.

[14] = tested on: AM-38; assay type: functional, cell-based, Homo sapiens;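 also: growth inhibition of AM-38 cells of human origin, read out by a cell viability assay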
Description: SANGER: Inhibition of human AM-38 cell growth in a cell viability assay.

[15] = tested on: SH-4; assay type: functional, cell-based, Homo sapiens;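 also: growth inhibition of SH-4 cells, read out with a cell viability assay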
Description: SANGER: Inhibition of human SH-4 cell growth in a cell viability assay.

[16] = tested on: ONS-76; assay type: functional, cell-based, Homo sapiens;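 also: growth inhibition of human ONS-76 cells, read out with a cell viability assay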
Description: SANGER: Inhibition of human ONS-76 cell growth in a cell viability assay.

[17] = tested on: HCC1187; assay type: functional, cell-based, Homo sapiens;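 also: growth inhibition of HCC1187 cells, read out with a cell viability assay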
Description: SANGER: Inhibition of human HCC1187 cell growth in a cell viability assay.

[18] = tested on: KM-H2; assay type: functional, cell-based, Homo sapiens;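 also: growth inhibition of KM-H2 cells, read out by a cell viability assay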
Description: SANGER: Inhibition of human KM-H2 cell growth in a cell viability assay.

[19] = tested on: HCC2157; assay type: functional, cell-based, Homo sapiens;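 also: growth inhibition of the cancer cell line, read out as cell viability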
Description: SANGER: Inhibition of human HCC2157 cell growth in a cell viability assay.

[20] = tested on: SW 962; assay type: functional, cell-based, Homo sapiens;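 also: growth inhibition of human SW962 cells, read out by a cell viability assay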
Description: SANGER: Inhibition of human SW962 cell growth in a cell viability assay.

[21] = tested on: GR-ST; assay type: functional, cell-based, Homo sapiens
Description: SANGER: Inhibition of human GR-ST cell growth in a cell viability assay.

[22] = tested on: HC-1; assay type: functional, cell-based, Homo sapiens;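 also: growth inhibition of HC-1 cells measured by a cell viability assay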
Description: SANGER: Inhibition of human HC-1 cell growth in a cell viability assay.

[23] = tested on: HCC 2998; assay type: functional, cell-based, Homo sapiens;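 also: growth inhibition of human HCC2998 cells, measured with a cell viability read-out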
Description: SANGER: Inhibition of human HCC2998 cell growth in a cell viability assay.

[24] = tested on: TE-9; assay type: functional, cell-based, Homo sapiens;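 also: cell growth inhibition, measured with a cell viability readout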
Description: SANGER: Inhibition of human TE-9 cell growth in a cell viability assay.

[25] = tested on: BB49-HNC; assay type: functional, cell-based, Homo sapiens;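 also: cell viability assay read-out, reported as inhibition of BB49-HNC cell growth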
Description: SANGER: Inhibition of human BB49-HNC cell growth in a cell viability assay.

[26] = tested on: NCI-H2126; assay type: functional, cell-based, Homo sapiens;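 also: growth inhibition of the cancer cell line, determined with a cell viability readout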
Description: SANGER: Inhibition of human NCI-H2126 cell growth in a cell viability assay.

[27] = tested on: COLO-824; assay type: functional, cell-based, Homo sapiens
Description: SANGER: Inhibition of human COLO-824 cell growth in a cell viability assay.

[28] = tested on: COR-L88; assay type: functional, cell-based, Homo sapiens;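 also: growth inhibition of COR-L88 cells, read out with a cell viability assay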
Description: SANGER: Inhibition of human COR-L88 cell growth in a cell viability assay.

[29] = tested on: DJM-1; assay type: functional, cell-based, Homo sapiens;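 also: growth inhibition of human DJM-1 cells, read out by a cell viability assay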
Description: SANGER: Inhibition of human DJM-1 cell growth in a cell viability assay.

[30] = tested on: A4-Fuk; assay type: functional, cell-based, Homo sapiens;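 also: growth inhibition of A4-Fuk cells, read out by a cell viability assay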
Description: SANGER: Inhibition of human A4-Fuk cell growth in a cell viability assay.

[31] = tested on: SBC-1; assay type: functional, cell-based, Homo sapiens;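 also: cell viability assay measuring growth inhibition of the SBC-1 cell line, IC50 being the concentration that halves growth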
Description: SANGER: Inhibition of human SBC-1 cell growth in a cell viability assay.

[32] = tested on: HT; assay type: functional, cell-based, Homo sapiens
Description: SANGER: Inhibition of human HT cell growth in a cell viability assay.

[33] = tested on: NCI-H1299; assay type: functional, cell-based, Homo sapiens;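 also: growth inhibition of human NCI-H1299 cells, read out by a cell viability assay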
Description: SANGER: Inhibition of human NCI-H1299 cell growth in a cell viability assay.

[34] = tested on: A3-KAW; assay type: functional, cell-based, Homo sapiens;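 also: growth inhibition of human A3-KAW cells, read out with a cell viability assay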
Description: SANGER: Inhibition of human A3-KAW cell growth in a cell viability assay.

[35] = tested on: UACC-257; assay type: functional, cell-based, Homo sapiens
Description: SANGER: Inhibition of human UACC-257 cell growth in a cell viability assay.

[36] = tested on: NCI-H1770; assay type: functional, cell-based, Homo sapiens;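 also: growth inhibition of NCI-H1770 cells determined with a viability readout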
Description: SANGER: Inhibition of human NCI-H1770 cell growth in a cell viability assay.

[37] = tested on: LOX IMVI; assay type: functional, cell-based, Homo sapiens
Description: SANGER: Inhibition of human LOXIMVI cell growth in a cell viability assay.

[38] = tested on: DMS-114; assay type: functional, cell-based, Homo sapiens
[39] = tested on: NCI-H1838; assay type: functional, cell-based, Homo sapiens;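 also: growth inhibition of NCI-H1838 cells, determined with a cell viability readout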
Description: SANGER: Inhibition of human NCI-H1838 cell growth in a cell viability assay.

[40] = tested on: LS-411N; assay type: functional, cell-based, Homo sapiens
[41] = tested on: Mo; assay type: functional, cell-based, Homo sapiens
Description: SANGER: Inhibition of human Mo-T cell growth in a cell viability assay.

[42] = tested on: NCI-N87; assay type: functional, cell-based, Homo sapiens;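 also: growth inhibition of human NCI-N87 cells, read out with a cell viability assay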
Description: SANGER: Inhibition of human NCI-N87 cell growth in a cell viability assay.

[43] = tested on: ES4; assay type: functional, cell-based, Homo sapiens;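 also: growth inhibition of human ES4 cells, read out by a cell viability assay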
Description: SANGER: Inhibition of human ES4 cell growth in a cell viability assay.

[44] = tested on: SJSA-1; assay type: functional, cell-based, Homo sapiens;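 also: growth inhibition of human SJSA-1 cells, read out through a cell viability measurement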
Description: SANGER: Inhibition of human SJSA-1 cell growth in a cell viability assay.

[45] = tested on: A101D; assay type: functional, cell-based, Homo sapiens;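 also: growth inhibition of the cell line, measured with a viability assay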
Description: SANGER: Inhibition of human A101D cell growth in a cell viability assay.

[46] = tested on: SNU1; assay type: functional, cell-based, Homo sapiens;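 also: growth inhibition of human NCI-SNU-1 cells, measured with a cell viability assay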
Description: SANGER: Inhibition of human NCI-SNU-1 cell growth in a cell viability assay.

[47] = tested on: SK-UT-1; assay type: functional, cell-based, Homo sapiens;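 also: growth inhibition of SK-UT-1 cells, measured by a cell viability assay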
Description: SANGER: Inhibition of human SK-UT-1 cell growth in a cell viability assay.

[48] = tested on: ACN; assay type: functional, cell-based, Homo sapiens;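 also: growth inhibition of the human ACN cell line, read out via cell viability testing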
Description: SANGER: Inhibition of human ACN cell growth in a cell viability assay.

[49] = tested on: KLE; assay type: functional, cell-based, Homo sapiens;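 also: growth inhibition of human KLE cells, read out with a cell viability assay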
Description: SANGER: Inhibition of human KLE cell growth in a cell viability assay.

COC1=CC(c2cc3ccccc3[nH]2)=N/C1=C\c1[nH]c(C)cc1C [OBATOCLAX MESYLATE]
IC50 ([1]; Homo sapiens, MZ2-MEL): 0.0296 µM
IC50 ([2]; Homo sapiens, NB12): 0.725 µM
IC50 ([3]; Homo sapiens, LB831-BLC): 0.444 µM
IC50 ([4]; Homo sapiens, SCH): > 16 µM
IC50 ([5]; Homo sapiens, MFM-223): 3.37 µM
IC50 ([6]; Homo sapiens, RPMI-8226): 0.316 µM
IC50 ([7]; Homo sapiens, HCC2218): 2.41 µM
IC50 ([8]; Homo sapiens, J-RT3-T3-5): 0.118 µM
IC50 ([9]; Homo sapiens, SK-MEL-2): 0.157 µM
IC50 ([10]; Homo sapiens, HAL-01): < 0.0625 µM
IC50 ([11]; Homo sapiens, MFH-ino): 0.247 µM
IC50 ([12]; Homo sapiens, SHP77): 2.01 µM
IC50 ([13]; Homo sapiens, L-428): 0.37 µM
IC50 ([14]; Homo sapiens, AM-38): 0.192 µM
IC50 ([15]; Homo sapiens, SH-4): < 0.0625 µM
IC50 ([16]; Homo sapiens, ONS-76): 0.0204 µM
IC50 ([17]; Homo sapiens, HCC1187): 1.71 µM
IC50 ([18]; Homo sapiens, KM-H2): 0.701 µM
IC50 ([19]; Homo sapiens, HCC2157): 1.14 µM
IC50 ([20]; Homo sapiens, SW 962): 0.0657 µM
IC50 ([21]; Homo sapiens, GR-ST): < 0.0625 µM
IC50 ([22]; Homo sapiens, HC-1): 1.93 µM
IC50 ([23]; Homo sapiens, HCC 2998): < 0.0625 µM
IC50 ([24]; Homo sapiens, TE-9): 0.233 µM
IC50 ([25]; Homo sapiens, BB49-HNC): 1.34 µM
IC50 ([26]; Homo sapiens, NCI-H2126): 2.23 µM
IC50 ([27]; Homo sapiens, COLO-824): 0.678 µM
IC50 ([28]; Homo sapiens, COR-L88): > 16 µM
IC50 ([29]; Homo sapiens, DJM-1): 0.175 µM
IC50 ([30]; Homo sapiens, A4-Fuk): 0.0895 µM
IC50 ([31]; Homo sapiens, SBC-1): 3.09 µM
IC50 ([32]; Homo sapiens, HT): 0.256 µM
IC50 ([33]; Homo sapiens, NCI-H1299): 0.0613 µM
IC50 ([34]; Homo sapiens, A3-KAW): 0.0857 µM
IC50 ([35]; Homo sapiens, UACC-257): 0.595 µM
IC50 ([36]; Homo sapiens, NCI-H1770): 0.047 µM
IC50 ([37]; Homo sapiens, LOX IMVI): 0.0619 µM
IC50 ([38]; Homo sapiens, DMS-114): 1.27 µM
IC50 ([39]; Homo sapiens, NCI-H1838): > 16 µM
IC50 ([40]; Homo sapiens, LS-411N): 0.143 µM
IC50 ([41]; Homo sapiens, Mo): 1.9 µM
IC50 ([42]; Homo sapiens, NCI-N87): 4.39 µM
IC50 ([43]; Homo sapiens, ES4): 0.103 µM
IC50 ([44]; Homo sapiens, SJSA-1): 0.147 µM
IC50 ([45]; Homo sapiens, A101D): 0.0305 µM
IC50 ([46]; Homo sapiens, SNU1): 0.121 µM
IC50 ([47]; Homo sapiens, SK-UT-1): 0.136 µM
IC50 ([48]; Homo sapiens, ACN): < 0.0625 µM
IC50 ([49]; Homo sapiens, KLE): 1.66 µM

BLEOMYCIN
IC50 ([1]; mz2-mel): 2.95 µM
IC50 ([2]; nb12): 82.4 µM
IC50 ([3]; lb831-blc): 8.38 µM
IC50 ([4]; sch): 444 µM
IC50 ([5]; mfm-223): 11000 µM
IC50 ([6]; rpmi-8226): 906 µM
IC50 ([7]; hcc2218): 41.9 µM
IC50 ([8]; j-rt3-t3-5): 0.712 µM
IC50 ([9]; sk-mel-2): 8.49 µM
IC50 ([10]; hal-01): 0.000453 µM
IC50 ([11]; mfh-ino): 0.00265 µM
IC50 ([12]; shp-77): 142 µM
IC50 ([13]; l-428): 52.3 µM
IC50 ([14]; am-38): 4.94 µM
IC50 ([15]; sh-4): 7.85 µM
IC50 ([16]; ons-76): 0.854 µM
IC50 ([17]; hcc1187): 32.9 µM
IC50 ([18]; km-h2): 6.97 µM
IC50 ([19]; hcc2157): 93.4 µM
IC50 ([20]; sw 962): 1.95 µM
IC50 ([21]; gr-st): 23.1 µM
IC50 ([22]; hc-1): 0.993 µM
IC50 ([23]; hcc 2998): 0.00659 µM
IC50 ([24]; te-9): 34 µM
IC50 ([25]; bb49-hnc): 38.8 µM
IC50 ([26]; nci-h2126): 358 µM
IC50 ([27]; colo-824): 53.3 µM
IC50 ([28]; cor-l88): 73.4 µM
IC50 ([29]; djm-1): 1.13 µM
IC50 ([30]; a4-fuk): 25.3 µM
IC50 ([31]; sbc-1): 370 µM
IC50 ([32]; ht): 5.56 µM
IC50 ([33]; nci-h1299): 0.108 µM
IC50 ([34]; a3-kaw): 0.717 µM
IC50 ([35]; uacc-257): 234 µM
IC50 ([36]; nci-h1770): 5.29 µM
IC50 ([37]; lox imvi): 0.452 µM
IC50 ([38]; dms-114): 6.79 µM
IC50 ([39]; nci-h1838): 24.5 µM
IC50 ([40]; ls-411n): 0.0528 µM
IC50 ([41]; mo): 103 µM
IC50 ([42]; nci-n87): 2.96 µM
IC50 ([43]; es4): 0.0383 µM
IC50 ([44]; sjsa-1): 2.19 µM
IC50 ([45]; a101d): 0.62 µM
IC50 ([46]; snu1): 2.84 µM
IC50 ([47]; sk-ut-1): 0.00629 µM
IC50 ([48]; acn): 0.808 µM
IC50 ([49]; kle): 21.2 µM
